Here are results for 7 molecules from patent US5830851A (Affymax Technologies N.V., priority 1995, dated 1998).

Entries after “also recorded” stand apart in the source; their conditions may differ. Residues, ends and D or L forms follow the SMILES beside them. No end group written: not given here.

Test [1] deals with T1, extracellular domain of the human erythropoietin receptor (EPO binding protein, EBP) (Homo sapiens, UniProt P19235).
T1 construct: made in house; host or cells: E. coli
T1 sequence (P19235 25-250 limits assumed): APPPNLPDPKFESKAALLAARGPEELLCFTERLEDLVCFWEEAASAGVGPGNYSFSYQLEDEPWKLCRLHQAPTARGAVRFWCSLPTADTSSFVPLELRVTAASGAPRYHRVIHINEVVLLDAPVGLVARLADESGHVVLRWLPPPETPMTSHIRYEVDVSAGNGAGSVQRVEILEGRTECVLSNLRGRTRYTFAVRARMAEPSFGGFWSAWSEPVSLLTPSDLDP
The test is described as follows: Immobilized EBP based [125I]EPO competition binding assay. Conditions: IC50 relative to RWJ61233 (IC50 of 5 μM). The procedure: The iodoacetyl activation chemistry of Sufolink beads (Pierce Chemical Co, Rockford, Ill.) is specific for free thiols and assures that the linkage is not easily reversible. EBP-Sulfolink beads were made as follows: SulfoLink gel suspension (10 ml) was mixed with coupling buffer (40 ml: 50 mM Tris, pH 8.3, 5 mM EDTA) and the gel was allowed to settle. The supernatant was removed and the EBP (0.3-1 mg/ml in coupling buffer) to be bound was added directly to the washed beads. The mixture was rocked gently for 30 minutes at room temperature, and the beads were allowed to settle for 1 hour at room temperature. […] The amount of EBP which was covalently bound to the beads was determined by comparing the OD280 of the original EBP solution to the total OD280 recovered in the reaction supernatant and the two 20 ml washes.
Binding assays were initiated by the addition of EBP beads (50 μl) to individual reaction tubes. […] The tubes were incubated for five hours (a time period experimentally determined as adequate for the establishment of equilibrium) at room temperature with gentle rocking. […]
Competitive binding analysis assays of candidate peptides were performed as outlined below. […] The columns containing the washed beads were placed in 12×75 mm glass tubes and bound radioactivity levels were determined using a gamma counter.

Test [2] concerns the target T2, human EPO-R (FDCP-1/hEPO-R cells) (Homo sapiens, UniProt P19235).
T2 construct: expressed in transfected cells; host or cells: FDCP-1 (murine hematopoietic progenitor cell line)
T2 sequence (P19235 25-508): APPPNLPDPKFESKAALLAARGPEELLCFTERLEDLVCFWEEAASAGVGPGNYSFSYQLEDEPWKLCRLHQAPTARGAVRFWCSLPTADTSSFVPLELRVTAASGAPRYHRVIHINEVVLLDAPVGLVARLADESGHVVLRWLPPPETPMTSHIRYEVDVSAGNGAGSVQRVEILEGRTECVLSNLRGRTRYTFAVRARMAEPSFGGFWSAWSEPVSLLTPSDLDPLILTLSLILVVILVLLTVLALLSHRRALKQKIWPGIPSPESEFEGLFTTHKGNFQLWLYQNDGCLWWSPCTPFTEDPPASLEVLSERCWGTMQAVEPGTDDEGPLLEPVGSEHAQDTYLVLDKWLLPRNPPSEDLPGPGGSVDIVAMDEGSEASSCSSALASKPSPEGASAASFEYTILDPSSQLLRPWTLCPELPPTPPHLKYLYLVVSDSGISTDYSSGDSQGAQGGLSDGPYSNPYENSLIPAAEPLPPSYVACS
In words: FDCP-1/hEPO-R cell proliferation bioassay. Type of test: cell-based.
Description: One assay utilized FDCP-1, a growth factor dependent murine multi-potential primitive hematopoietic progenitor cell line (see, e.g., Dexter et al. (1980) J. Exp. Med. 152:1036-1047), as the parental cell line. This cell line can proliferate, but not differentiate, when supplemented with WEHI3-conditioned media (a medium that contains IL-3, ATCC number T1B68).
In brief, the cells are grown to half stationary density in the presence of the necessary growth factors. The cells are then washed in PBS and starved for 16-24 hours in whole media without the growth factors. After determining the viability of the cells, stock solutions (in whole media without the growth factors) are made to give about 10^5 cells per 50 microliters. […] Cells (50 microliters) are added to each well and the cells are incubated 24-48 hours, at which point the negative controls should die or be quiescent. Cell proliferation is then measured by techniques known in the art, such as an MTT assay which correlates with ^3 H-thymidine incorporation as an indication of cell proliferation (see, Mosmann (1983) J. Immunol. Methods 65:55).

Test [3] deals with T3, truncated human erythropoietin receptor (Homo sapiens, UniProt P19235).
T3 sequence (P19235 25-468 limits assumed): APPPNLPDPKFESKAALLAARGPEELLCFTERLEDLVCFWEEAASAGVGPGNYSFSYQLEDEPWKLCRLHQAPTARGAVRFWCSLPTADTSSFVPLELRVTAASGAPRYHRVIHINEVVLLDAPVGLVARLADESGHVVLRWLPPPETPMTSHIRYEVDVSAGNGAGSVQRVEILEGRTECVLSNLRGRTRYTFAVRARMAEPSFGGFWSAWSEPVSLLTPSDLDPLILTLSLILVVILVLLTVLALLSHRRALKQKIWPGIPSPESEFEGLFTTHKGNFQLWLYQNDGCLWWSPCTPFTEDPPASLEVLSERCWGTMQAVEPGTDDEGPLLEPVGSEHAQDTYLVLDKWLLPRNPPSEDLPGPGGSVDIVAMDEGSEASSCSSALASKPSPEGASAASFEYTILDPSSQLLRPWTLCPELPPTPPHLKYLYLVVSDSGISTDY
In words: cell-based.
Description: Cells are counted and resuspended at a concentration of 800,000 cells/ml. Approximately forty thousand cells (50μ) are added to each well of a 96 well microtiter plate. Peptide is added to each well in triplicate. A standard dose response determination is run with each series of peptides. After a forty-two hr incubation (≈2 doubling), each well is pulsed with 1 μCi/well Thymidine. Cells are incubated an additional six hr at which time cells are harvested and counted to assess thymidine incorporation as an indicator of cell proliferation.

Consider “RWJ 61721: sequence analog peptide shown only as a drawing in Table 19 (GGTYSEHFGPLTWVKKPQGG)”, for which the “Relative Binding” value in test [1] is on record as above 100.

As for `CC(=O)NCC(=O)NCC(=O)N[C@H](C(=O)N[C@@H](Cc1ccc(O)cc1)C(=O)N[C@@H](CO)C(=O)N[C@H]1CSSC[C@@H](C(=O)N[C@@H](CCCCN)C(=O)N2CCC[C@H]2C(=O)N[C@@H](CCC(N)=O)C(=O)NCC(=O)NCC(N)=O)NC(=O)[C@H](C(C)C)NC(=O)[C@H](Cc2c[nH]c3ccccc23)NC(=O)[C@H]([C@@H](C)O)NC(=O)[C@H](CC(C)C)NC(=O)[C@@H]2CCCN2C(=O)CNC(=O)[C@H](Cc2ccccc2)NC(=O)[C@H](Cc2c[nH]cn2)NC1=O)[C@@H](C)O` [RWJ 62146] (HELM PEPTIDE1{[ac].G.G.T.Y.S.C.H.F.G.P.L.T.W.V.C.K.P.Q.G.G.[am]}$PEPTIDE1,PEPTIDE1,7:R3-16:R3$$$V2.0), the “Relative Binding” value in test [1] is on record as 4.

As for “Streptavidin: streptavidin alone, control for the complex [reference compound]”, in test [2] (tested without peptide), the stimulatory effect alone entry is reported as “some small stimulatory effect at the highest concentrations; also recorded: marginal activity at high concentrations”.

As for `CC(C)C[C@@H]1NC(=O)[C@@H]2CCCN2C(=O)CNC(=O)[C@H](Cc2ccccc2)NC(=O)[C@H](Cc2c[nH]cn2)NC(=O)[C@@H](NC(=O)[C@H](CO)NC(=O)[C@H](Cc2ccc(N)cc2)NC(=O)[C@@H](NC(=O)CNC(=O)CN)[C@@H](C)O)CSSC[C@@H](C(=O)N[C@@H](CCCCN)C(=O)N2CCC[C@H]2C(=O)N[C@@H](CCC(N)=O)C(=O)NCC(=O)NCC(N)=O)NC(=O)[C@H](C(C)C)NC(=O)[C@H](Cc2c[nH]c3ccccc23)NC(=O)[C@H]([C@@H](C)O)NC1=O` [RWJ 62019, GGTXSCHFGPLTWVCKPQGG] (HELM PEPTIDE1{G.G.T.[Nc1ccc(C[C@H](N[*:1])C(=O)[*:2])cc1].S.C.H.F.G.P.L.T.W.V.C.K.P.Q.G.G.[am]}$PEPTIDE1,PEPTIDE1,6:R3-15:R3$$$V2.0), in test [3], the EC50 amounted to 3000 nM.

As for “GGTYSCHFGPLTWVCKPQGGSSK+G anti-B: biotinylated peptide preincubated with purified goat anti-biotin IgG at a 2:1 molar ratio (cysteine pairing not given here; also: biotinylated, site not given here, preincubated with goat anti-biotin IgG at 2:1 molar ratio)”, the “reduction in EPO-ED50 / increase in potency over the free peptide” value in test [2] is “one log reduction”.

For the molecule `CC(C)C[C@@H]1NC(=O)[C@@H]2CCCN2C(=O)CNC(=O)[C@H](Cc2ccccc2)NC(=O)[C@H](Cc2c[nH]cn2)NC(=O)[C@@H](NC(=O)[C@H](CO)NC(=O)[C@H](Cc2ccc([N+](=O)[O-])cc2)NC(=O)[C@@H](NC(=O)CNC(=O)CN)[C@@H](C)O)CSSC[C@@H](C(=O)N[C@@H](CCCCN)C(=O)N2CCC[C@H]2C(=O)N[C@@H](CCC(N)=O)C(=O)NCC(=O)NCC(N)=O)NC(=O)[C@H](C(C)C)NC(=O)[C@H](Cc2c[nH]c3ccccc23)NC(=O)[C@H]([C@@H](C)O)NC1=O` [RWJ 61894, GGTXSCHFGPLTWVCKPQGG] (HELM PEPTIDE1{G.G.T.[O=C([C@H](Cc1ccc([N+](=O)[O-])cc1)N[*:1])[*:2]].S.C.H.F.G.P.L.T.W.V.C.K.P.Q.G.G.[am]}$PEPTIDE1,PEPTIDE1,6:R3-15:R3$$$V2.0), the EC50 in test [3] was 800 nM.

In the case of `CC(C)C[C@@H]1NC(=O)[C@@H]2CCCN2C(=O)CNC(=O)[C@H](Cc2ccccc2)NC(=O)[C@H](Cc2c[nH]cn2)NC(=O)[C@@H](NC(=O)[C@H](CO)NC(=O)[C@H](Cc2ccc(O)cc2)NC(=O)[C@@H](NC(=O)CNC(=O)CN)[C@@H](C)O)CSSC[C@@H](C(=O)N[C@@H](CCCCN)C(=O)N2CCC[C@H]2C(=O)N[C@@H](CCC(N)=O)C(=O)NCC(=O)NCC(=O)N[C@@H](CO)C(=O)N[C@@H](CO)C(=O)N[C@@H](CCCCNC(=O)CCCCCNC(=O)CCCC[C@@H]2SC[C@@H]3NC(=O)N[C@@H]32)C(N)=O)NC(=O)[C@H](C(C)C)NC(=O)[C@H](Cc2c[nH]c3ccccc23)NC(=O)[C@H]([C@@H](C)O)NC1=O` [AF11505] (HELM PEPTIDE1{G.G.T.Y.S.C.H.F.G.P.L.T.W.V.C.K.P.Q.G.G.S.S.K.[am]}|PEPTIDE2{[O=C1N[C@H]2[C@H](CS[C@H]2CCCCC(=O)[*:2])N1].[O=C(CCCCCN[*:1])[*:2]]}$PEPTIDE1,PEPTIDE2,23:R3-2:R2|PEPTIDE1,PEPTIDE1,6:R3-15:R3$$$V2.0; N-terminus and C-terminus assumed; bridges inferred), the EC50 in test [2] (free peptides, read-out: EPO-ED50) is around 1000 nM.
